Blank lines part the entries; values can stand above or below the compound they belong to. The source made the active and inactive calls. The rule behind the calls is not given here.
Legend:
HCT-116 [1] = experiment: cells; conditions: Homo sapiens, HCT-116, 72 h
Description: Antiproliferative activity against human HCT-116 cells assessed as inhibition of cell growth measured after 72 hrs by CCK-8 method

[2] = MRT (0 to 12 hrs) in Sprague-Dawley rat at 5 mg/kg, iv by LC-MS/MS analysis; type: ADME, organism-based; conditions: in vivo
[3] = Clearance in Sprague-Dawley rat at 5 mg/kg, iv by LC-MS/MS analysis; type: ADME, organism-based; conditions: in vivo
[4] = Half life in Sprague-Dawley rat at 5 mg/kg, iv by LC-MS/MS analysis; conditions: in vivo
[5] = Half life in Sprague-Dawley rat at 15 mg/kg, po by LC-MS/MS analysis; conditions: in vivo
[6] = AUC (0 to 12hrs) in Sprague-Dawley rat at 15 mg/kg, po by LC-MS/MS analysis; type: ADME, organism-based; conditions: in vivo
[7] = Tmax in Sprague-Dawley rat at 15 mg/kg, po by LC-MS/MS analysis; type: ADME, organism-based; conditions: in vivo
[8] = MRT (0 to 12hrs) in Sprague-Dawley rat at 15 mg/kg, po by LC-MS/MS analysis; type: ADME, organism-based; conditions: in vivo
[9] = Cmax in Sprague-Dawley rat at 15 mg/kg, po by LC-MS/MS analysis; type: ADME, organism-based; conditions: in vivo
[10] = AUC (0 to 12hrs) in Sprague-Dawley rat at 5 mg/kg, iv by LC-MS/MS analysis; type: ADME, organism-based; conditions: in vivo
[11] = Oral bioavailability in Sprague-Dawley rat at 15 mg/kg by LC-MS/MS analysis; type: ADME, organism-based; conditions: in vivo
[12] = Cmax in Sprague-Dawley rat at 5 mg/kg, iv by LC-MS/MS analysis; type: ADME, organism-based; conditions: in vivo
HCT-116 [13] = experiment: Induction of apoptosis in human HCT-116 cells assessed as cell death at 20 uM measured after 48 hrs by annexin V-FITC/7-AAD based flow cytometry analysis relative to control; type: functional
HCT-116 [14] = experiment: Induction of cell cycle arrest in human HCT-116 cells assessed as effect on number of cells at G1 phase at 5 to 20 uM measured after 48 hrs by PI staining based flow cytometry analysis; type: functional; conditions: dose 5-20 µM
[15] = Antiproliferative activity against rat H9c2 cells assessed as inhibition of cell growth measured after 72 hrs by CCK-8 method; type: toxicity, cell-based
[16] = Antiproliferative activity against human HCoEpiC cells assessed as inhibition of cell growth measured after 72 hrs by CCK-8 method; type: toxicity, cell-based
HCT-15 = experiment: cells; conditions: Homo sapiens, HCT-15, 72 h
Description: Antiproliferative activity against human HCT-15 cells assessed as inhibition of cell growth measured after 72 hrs by CCK-8 method

[17] = molecular target: T1, ATP-dependent Clp protease proteolytic subunit, mitochondrial (Homo sapiens, UniProt Q16740); experiment: Agonist activity at human ClpP expressed in Escherichia coli using AC-WLA-AMC as substrate measured every 5 mins for 1 hr by fluorescence based analysis
HCT-116 [18] = experiment: Antiproliferative activity against human HCT-116 cells assessed reduction in clone formation measured after 48 hrs by crystal violet staining based analysis; type: functional, cell-based
Cell membrane = experiment: Induction of mitochondrial membrane potential loss in human HCT-116 cells assessed as increase in green fluorescence at high dose measured after 48 hrs by JC-1 staining based microscopy analysis; type: cell membranes
HCT-116 [19] = experiment: Induction of apoptosis in human HCT-116 cells measured after 48 hrs by annexin V-FITC/7-AAD based flow cytometry analysis; type: functional, cell-based
HCT-116 [20] = experiment: Inhibition of cell migration in human HCT-116 cells at 5 to 20 uM measured after 24 to 48 hrs by microscopy based analysis; type: functional; conditions: dose 5-20 µM, time 24-48 hrs
HCT-116 [21] = experiment: Induction of cell cycle arrest in human HCT-116 cells assessed as increase in number of cells at G2 phase at high dose measured after 48 hrs by PI staining based flow cytometry analysis; type: functional
[22] = Antiproliferative activity against human L02 cells assessed as inhibition of cell growth measured after 72 hrs by CCK-8 method; type: toxicity, cell-based
HCT-116 [23] = experiment: Antiproliferative activity against ClpP knockdown human HCT-116 cells assessed as fold increase in IC50; type: functional
[24] = molecular target: T1, ATP-dependent Clp protease proteolytic subunit, mitochondrial; conditions: filed as agonist, dose 100.0 µM, time 30.0 min
SW-620 = experiment: cells; conditions: Homo sapiens, SW-620, 72 h
Description: Antiproliferative activity against human SW-620 cells assessed as inhibition of cell growth measured after 72 hrs by CCK-8 method

SW480 = experiment: cells; conditions: Homo sapiens, SW480, 72 h
Description: Antiproliferative activity against human SW480 cells assessed as inhibition of cell growth measured after 72 hrs by CCK-8 method

HCT-116 [25] = experiment: Inhibition of mitochondrial function in human HCT-116 cells assessed as reduction in ATP production; type: functional, cell-based
[26] = Antiproliferative activity against HEK293 cells assessed as inhibition of cell growth measured after 72 hrs by CCK-8 method; type: toxicity, cell-based; conditions: human
HCT-116 [27] = experiment: Induction of apoptosis in human HCT-116 cells assessed as apoptotic rate at medium dose measured after 48 hrs by annexin V-FITC/7-AAD based flow cytometry analysis relative to control; type: functional
DLD-1 = experiment: cells; conditions: Homo sapiens, DLD-1, 72 h
Description: Antiproliferative activity against human DLD-1 cells assessed as inhibition of cell growth measured after 72 hrs by CCK-8 method

HCT-116 [28] = experiment: Induction of ROS generation in human HCT-116 cells assessed as increase in intracellular ROS level measured after 48 hrs DCFH-DA staining based analysis; type: functional, cell-based
HCT-116 [29] = experiment: Induction of apoptosis in human HCT-116 cells assessed as apoptotic rate at low dose measured after 48 hrs by annexin V-FITC/7-AAD based flow cytometry analysis relative to control; type: functional
[30] = molecular target: T1, ATP-dependent Clp protease proteolytic subunit, mitochondrial; experiment: Binding affinity to human ClpP expressed in Escherichia coli assessed as dissociation constant by ITC method
HCT-116 [31] = experiment: Induction of cell cycle arrest in human HCT-116 cells assessed as increase in number of cells at G2 phase at 5 uM measured after 48 hrs by PI staining based flow cytometry analysis; type: functional
HCT-116 [32] = experiment: Upregulation of slug expression in human HCT-116 cells measured after 48 hrs by Western blot analysis; type: functional, cell-based

T1 sequence (Q16740 whole entry): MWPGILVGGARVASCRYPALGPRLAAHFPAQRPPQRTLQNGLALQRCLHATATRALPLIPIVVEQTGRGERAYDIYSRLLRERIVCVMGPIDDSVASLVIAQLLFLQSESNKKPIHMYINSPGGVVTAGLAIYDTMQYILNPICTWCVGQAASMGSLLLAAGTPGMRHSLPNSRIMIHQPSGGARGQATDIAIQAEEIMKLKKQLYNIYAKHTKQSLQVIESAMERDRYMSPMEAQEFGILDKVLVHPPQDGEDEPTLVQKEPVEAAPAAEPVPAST

SMILES: CC1(C)CCC(NC(=O)C2CCCN(C(=O)c3cc(C(F)(F)F)cc(C(F)(F)F)c3)C2)CC1 (stereo unspecified)
IC50 (HCT-116 [1]): 80.4 µM

SMILES: N#Cc1cccc(CN2CCCC(C(=O)NCc3ccc4c(c3)OCO4)C2)c1 (stereo unspecified)
IC50 (HCT-116 [1]): 50 µM

SMILES: O=C(Nc1ccc(Cl)cc1)C1=CCCN(C(=O)c2cc(C(F)(F)F)cc(C(F)(F)F)c2)C1
IC50 (HCT-116 [1]): 40.3 µM

SMILES: N#Cc1cccc(CN2CCCC(C(=O)NCc3ccc4ccccc4c3)C2)c1 (stereo unspecified)
IC50 (HCT-116 [1]): 48.3 µM

SMILES: N#Cc1cccc(CN2CCCC(C(=O)NCc3ccc(Cl)cc3Cl)C2)c1 (stereo unspecified)
IC50 (HCT-116 [1]): 40.9 µM

SMILES: Cc1ccccc1CN1C(=O)C2=C(CCN(Cc3ccccc3)C2)N2CCN=C12 [DORDAVIPRONE]
MRT last [2]: 54 min
clearance [3]: 2.56 L/h/kg
half-life [4]: 54 min
half-life [5]: 66 min
AUC(0-t) [6]: 0.894 µg·h/mL
Tmax [7]: 24 min
MRT last [8]: 90 min
Cmax [9]: 0.566 µg/mL
AUC(0-t) [10]: 1.96 µg·h/mL
bioavailability [11]: 15.3%
Cmax [12]: 2.77 µg/mL

SMILES: CC(ONC(=O)c1cc(C(F)(F)F)cc(C(F)(F)F)c1)C(=O)Nc1ccc(Cl)cc1 (stereo unspecified)
IC50 (HCT-116 [1]): 20.5 µM
Activity (HCT-116 [13]): 40%
Activity (HCT-116 [14]): inactive
IC50 at 72 h [15]: 35.5 µM
IC50 at 72 h [16]: 61.7 µM
IC50 (HCT-15): 37.5 µM
EC50 [17]: 0.0105 µM
Activity (HCT-116 [18]): Dose-Dependent Effect
Activity (Cell membrane): Active
Activity (HCT-116 [19]): Dose-Dependent Effect
inhibition (HCT-116 [20]): Active
Activity (HCT-116 [21]): ~40%
IC50 at 72 h [22]: 30.4 µM
fold change (FC) (HCT-116 [23]): 1.5
ΔTm [24]: 4 °C
IC50 (SW-620): 15.5 µM
IC50 (SW480): 41.3 µM
inhibition (HCT-116 [25]): Active
IC50 at 72 h [26]: 55.4 µM
Activity (HCT-116 [27]): 22%
IC50 (DLD-1): 29.8 µM
Activity (HCT-116 [28]): Active
Activity (HCT-116 [29]): 15%
Kd [30]: 8.41 µM
Activity (HCT-116 [31]): 20%

SMILES: O=C(Nc1ccncc1)C1CCCN(C(=O)c2cc(C(F)(F)F)cc(C(F)(F)F)c2)C1 (stereo unspecified)
IC50 (HCT-116 [1]): 59.7 µM

SMILES: O=C(Nc1ccc(Oc2ccccc2)cc1)C1CCCN(C(=O)c2cc(C(F)(F)F)cc(C(F)(F)F)c2)C1 (stereo unspecified)
IC50 (HCT-116 [1]): 40.1 µM

SMILES: O=C(Nc1ccc(Cl)cc1)C1=CCCN(Cc2ccccc2)C1
IC50 (HCT-116 [1]): 83.5 µM

SMILES: O=C(NCCc1ccc(Cl)cc1)C1CCCN(C(=O)c2cc(C(F)(F)F)cc(C(F)(F)F)c2)C1 (stereo unspecified)
IC50 (HCT-116 [1]): 56.5 µM

SMILES: O=C(NCc1ccccc1)C1=CCCN(Cc2ccccc2)C1
IC50 (HCT-116 [1]): 55.4 µM

SMILES: O=C(NCc1ccc(C(F)(F)F)cc1)C1=CCCN(Cc2ccccc2)C1
IC50 (HCT-116 [1]): 50.4 µM
Activity (HCT-116 [32]): Active

SMILES: O=C(NCc1ccc(C(F)(F)F)cc1)C1=CCCN(Cc2ccc(F)c(F)c2)C1
IC50 (HCT-116 [1]): 25.6 µM

SMILES: O=C(Nc1ccc(Cl)cc1)C1CCCN(C(=O)c2cccc(-c3ccco3)c2)C1 (stereo unspecified)
IC50 (HCT-116 [1]): 76.5 µM

SMILES: O=C(Nc1ccc(Cl)cc1)C1CCCN(C(=O)Cc2cc(Cl)ccc2F)C1 (stereo unspecified)
IC50 (HCT-116 [1]): 67.5 µM

SMILES: O=C(Nc1ccc(C(F)(F)F)cc1)C1CCCN(C(=O)c2cc(C(F)(F)F)cc(C(F)(F)F)c2)C1 (stereo unspecified)
IC50 (HCT-116 [1]): 30 µM

SMILES: N#Cc1cccc(CN2CCCC(C(=O)NCc3ccc(Cl)c(Cl)c3)C2)c1 (stereo unspecified)
IC50 (HCT-116 [1]): 25.3 µM

SMILES: CC(C)(C)c1ccc(CNC(=O)C2CCCN(Cc3cccc(C#N)c3)C2)cc1 (stereo unspecified)
IC50 (HCT-116 [1]): 40 µM

SMILES: O=C(NCc1ccc2c(c1)OCO2)C1CCCN(C(=O)c2cc(C(F)(F)F)cc(C(F)(F)F)c2)C1 (stereo unspecified)
IC50 (HCT-116 [1]): 95.3 µM

SMILES: O=C(CCNC(=O)c1cc(C(F)(F)F)cc(C(F)(F)F)c1)Nc1ccc(Cl)cc1
IC50 (HCT-116 [1]): 64.5 µM

SMILES: O=C(Nc1cccc(Cl)c1)C1CCCN(C(=O)c2cc(C(F)(F)F)cc(C(F)(F)F)c2)C1 (stereo unspecified)
IC50 (HCT-116 [1]): 30.5 µM

SMILES: CC(NC(=O)c1cc(C(F)(F)F)cc(C(F)(F)F)c1)C(=O)Nc1ccc(Cl)cc1 (stereo unspecified)
IC50 (HCT-116 [1]): 58.4 µM

SMILES: O=C(NCCNC(=O)c1cc(C(F)(F)F)cc(C(F)(F)F)c1)c1ccc(Cl)cc1
IC50 (HCT-116 [1]): 76.9 µM

Continued, values first:

IC50 (HCT-116 [1]): 25.3 µM
SMILES: O=C(Nc1ccc(Cl)cc1)c1cccc(NC(=O)c2cc(C(F)(F)F)cc(C(F)(F)F)c2)c1

IC50 (HCT-116 [1]): 22.1 µM
SMILES: N#Cc1cccc(CN2CCCC(C(=O)NCc3ccc(Cl)cc3)C2)c1 (stereo unspecified)

IC50 (HCT-116 [1]): 16.4 µM
SMILES: O=C(Nc1cc(Cl)c(Cl)c(Cl)c1)C1CCCN(C(=O)c2cc(C(F)(F)F)cc(C(F)(F)F)c2)C1 (stereo unspecified)

IC50 (HCT-116 [1]): 16.7 µM
SMILES: O=C(Nc1ccc(Cl)cc1)C1CCCN(C(=O)c2cc(C(F)(F)F)cc(C(F)(F)F)c2)C1 (stereo unspecified)

IC50 (HCT-116 [1]): 25.1 µM
SMILES: O=C(NCc1ccc(C(F)(F)F)cc1)C1CCCN(C(=O)c2cc(C(F)(F)F)cc(C(F)(F)F)c2)C1 (stereo unspecified)

IC50 (HCT-116 [1]): 20.4 µM
SMILES: N#Cc1cccc(CN2CCCC(C(=O)NCc3ccc(C(F)(F)F)cc3)C2)c1 (stereo unspecified)

IC50 (HCT-116 [1]): 25.3 µM
SMILES: O=C(NCc1ccc(C(F)(F)F)cc1)C1=CCCN(Cc2cc(C(F)(F)F)cc(C(F)(F)F)c2)C1

IC50 (HCT-116 [1]): 15.7 µM
SMILES: O=C(Nc1ccc(Cl)c(Cl)c1)C1CCCN(C(=O)c2cc(C(F)(F)F)cc(C(F)(F)F)c2)C1 (stereo unspecified)

IC50 (HCT-116 [1]): 2.5 µM
SMILES: N#Cc1cccc(CN2CCC=C(C(=O)Nc3ccc(Cl)cc3)C2)c1

IC50 (HCT-116 [1]): 20.3 µM
SMILES: N#Cc1cccc(CN2CCCC(C(=O)Nc3ccc(Cl)cc3)C2)c1 (stereo unspecified)

IC50 (HCT-116 [1]): 20.1 µM
SMILES: O=C(NCc1ccc(C(F)(F)F)cc1)C1=CCCN(Cc2cccc(F)c2)C1

IC50 (HCT-116 [1]): 20.5 µM
SMILES: O=C(NCc1ccc(C(F)(F)F)cc1)C1=CCCN(C(=O)c2cc(C(F)(F)F)cc(C(F)(F)F)c2)C1

— ChEMBL document CHEMBL5528050, “Discovery of a Novel Series of Homo sapiens Caseinolytic Protease P Agonists for Colorectal Adenocarcinoma Treatment via ATF3-Dependent Integrated Stress Response” (J Med Chem, 2024)
